Converted amounts (≈) assume the structure as drawn.
Assays:
Assay type in all cases: cell-based, Mycobacterium tuberculosis
M. tuberculosis 27294 = test: In vitro agar dilution assay (MIC), reference strain; details: for MIC (μg/ml) against M. tuberculosis-27294: Table I; for MIC: Mycobacterium tuberculosis, 27294, Table I, read-out: MIC (μg/ml) against M. tuberculosis-27294
[1] = tested on: M. tuberculosis H37Rv ATCC 27294; test: In vitro growth inhibition assay, BACTEC 460 TB system; set-up: key: +: If ΔGI of test vial is less than that of the control vial the culture was sensitive to the test compound; details: final concentration 6.25 μg/ml
[2] = tested on: M. tuberculosis clinical isolates, sensitive; test: microbe, parasite or virus in culture; details: for MIC (μg/ml) against Clinical isolates Sensitive: Table I, agar dilution; for MIC: Mycobacterium tuberculosis, read-out: MIC (μg/ml) against Clinical isolates Sensitive

Row | Structure (SMILES) | MIC (μg/ml) against M. tuberculosis-27294 (M. tuberculosis 27294) [µg/mL] | Growth inhibition of M. tuberculosis 27294 [1] | MIC (μg/ml) against Clinical isolates Sensitive [2] | MIC (M. tuberculosis 27294) [µg/mL] | MIC [2] [µg/mL]
1 | Cc1c(CN2CCN(C(=O)c3ccco3)CC2)cc(-c2ccc(Cl)cc2)n1-c1ccc(Cl)cc1 [compound 7, 4-{[1,5-bis(4-chlorophenyl)-2-methylpyrrol-3-yl]methyl}piperazinyl-2-furyl-ketone] | 4.0 (≈ 8.09 µM) | + | 1.0 to 4.0 µg/mL | – | –
2 | Cc1ccc(Cl)cc1N1CCN(Cc2cc(-c3ccc(Cl)cc3)n(-c3ccc(Cl)cc3)c2C)CC1 [compound 10, 1-{[1,5-bis(4-chlorophenyl)-2-methylpyrrol-3-yl]methyl}-4-(5-chloro-2-methylphenyl) piperazine] | – | + | – | 1 (≈ 1.91 µM) | 1 to 2 (≈ 1.91 to 3.81 µM)
3 | Cc1c(CN2CCN(c3ccc(F)cc3)CC2)cc(-c2ccccc2)n1NC(=O)c1ccncc1 [compound 11, N-(3-{[4-(4-fluorophenyl)piperazinyl]methyl}-2-methyl-5-phenylpyrrolyl)-4-pyridylcarboxamide] | 1.0 (≈ 2.13 µM) | + | 0.5 to 1.0 µg/mL | – | –
4 | COc1ccccc1N1CCN(Cc2cc(-c3ccccc3)n(NC(=O)c3ccncc3)c2C)CC1 [compound 13, N-(3-{[4-(2-methoxyphenyl)piperazinyl]methyl}-2-methyl-5-phenylpyrrolyl)-4-pyridylcarboxamide] | 0.5 (≈ 1.04 µM) | + | 0.5 to 2.0 µg/mL | – | –
5 | Cc1c(CN2CCN(c3ccccn3)CC2)cc(-c2ccccc2)n1NC(=O)c1ccncc1 [compound 14, N-(3-{[4-(2-pyridyl)piperazinyl]methyl}-2-methyl-5-phenylpyrrolyl)-4-pyridylcarboxamide] | 4.0 (≈ 8.84 µM) | + | 4.0 to 8.0 µg/mL | – | –
6 | Cc1c(CN2CCN(Cc3ccccc3)CC2)cc(-c2ccccc2)n1NC(=O)c1ccncc1 [compound 15, N-(2-methyl-5-phenyl-3-{[4-benzylpiperazinyl]methyl}pyrrolyl)-4-pyridylcarboxamide] | 0.5 (≈ 1.07 µM) | + | 0.5 to 1.0 µg/mL | – | –
7 | Cc1c(CN2CCN(C)CC2)cc(-c2ccccc2)n1NC(=O)c1ccncc1 [compound 16, N-{2-methyl-3-[(4-methylpiperazinyl)methyl]-5-phenylpyrrolyl}-4-pyridylcarboxamide] | 2.0 (≈ 5.13 µM) | + | 2.0 to 4.0 µg/mL | – | –
8 | Cc1c(CN2CCN(Cc3ccc4c(c3)OCO4)CC2)cc(-c2ccccc2)n1NC(=O)c1ccncc1 [compound 17, N-(3-{[4-(2H-benzo[d]1,3-dioxolan-5-ylmethyl)piperazinyl]methyl}-2-methyl-5-phenylpyrrolyl)-4-pyridylcarboxamide] | 2.0 (≈ 3.92 µM) | + | 2.0 to 4.0 µg/mL | – | –
9 | Cc1c(CN2CCSCC2)cc(-c2ccccc2)n1NC(=O)c1ccncc1 [compound 21, N-[2-methyl-5-phenyl-3-(1,4-thiazaperhydroin-4-ylmethyl)pyrrolyl]-4-pyridyl carboxamide] | 0.5 (≈ 1.27 µM) | + | 0.5 to 1.0 µg/mL | – | –
10 | Cc1cc(CN2CCN(c3ccc(F)cc3)CC2)c(-c2ccccc2)n1NC(=O)c1ccncc1 [compound 22, N-(3-{[4-(4-fluorophenyl)piperazinyl]methyl}-5-methyl-2-phenylpyrrolyl)-4-pyridylcarboxamide] | 2.0 (≈ 4.26 µM) | + | 2.0 to 4.0 µg/mL | – | –
11 | Cc1c(CN2CCN(c3ccc(F)cc3)CC2)cc(-c2ccccc2)n1NC(=O)c1cnccn1 [compound 25, N-(3-{[4-(4-fluorophenyl)piperazinyl]methyl}-2-methyl-5-phenylpyrrolyl)pyrazin-2-ylcarboxamide] | 2.0 (≈ 4.25 µM) | + | 2.0 to 4.0 µg/mL | – | –
12 | COc1ccccc1N1CCN(Cc2cc(-c3ccccc3)n(NC(=O)c3cnccn3)c2C)CC1 [compound 26, N-(3-{[4-(2-methoxyphenyl)piperazinyl]methyl}-2-methyl-5-phenylpyrrolyl) pyrazin-2-ylcarboxamide] | 1.0 (≈ 2.07 µM) | + | 2.0 µg/mL (≈ 4.14 µM) | – | –
13 | Cc1c(CN2CCN(c3cccc(C(F)(F)F)c3)CC2)cc(-c2ccccc2)n1NC(=O)c1cnccn1 [compound 27, N-(3-{[4-(3-trifluoromethylphenyl)piperazinyl]methyl}-2-methyl-5-phenylpyrrolyl)pyrazin-2-ylcarboxamide] | 2.0 (≈ 3.84 µM) | + | 1.0 to 4.0 µg/mL | – | –
14 | Cc1c(CN2CCN(Cc3ccc4c(c3)OCO4)CC2)cc(-c2ccccc2)n1NC(=O)c1cnccn1 [compound 29, N-(3-{[4-(2H-benzo[d]1,3-dioxolen-5-ylmethyl)piperazinyl]methyl}-2-methyl-5-phenylpyrrolyl)pyrazin-2-ylcarboxamide] | >16.0 | + | >16.0 µg/mL | – | –
15 | Cc1c(CN2CCN(C(c3ccccc3)c3ccccc3)CC2)cc(-c2ccccc2)n1NC(=O)c1cnccn1 [compound 30, N-(3-{[4-(diphenylmethyl)piperazinyl]methyl}-2-methyl-5-phenylpyrrolyl)-pyrazin-2-ylcarboxamide] | 2.0 (≈ 3.69 µM) | + | 2.0 to 4.0 µg/mL | – | –
16 | Cc1cc(CN2CCN(c3cccc(C(F)(F)F)c3)CC2)c(-c2ccccc2)n1NC(=O)c1cnccn1 [compound 33, N-(3-{[4-(3-trifluoromethylphenyl)piperazinyl]methyl}-5-methyl-2-phenylpyrrolyl)pyrazin-2-ylcarboxamide] | 2.0 (≈ 3.84 µM) | + | 2.0 to 8.0 µg/mL | – | –
17 | Cc1cc(CN2CCN(c3ccccn3)CC2)c(-c2ccccc2)n1NC(=O)c1cnccn1 [compound 34, N-(3-{[4-(2-pyridyl)piperazinyl]methyl}-5-methyl-2-phenylpyrrolyl)pyrazin-2-ylcarboxamide] | 16.0 (≈ 35.3 µM) | + | 16.0-16.0 μg/ml | – | –
18 | Cc1cc(CN2CCN(Cc3ccc4c(c3)OCO4)CC2)c(-c2ccccc2)n1NC(=O)c1cnccn1 [compound 35, N-(3-{[4-(2H-benzo[3,4-d]1,3-dioxolan-5-ylmethyl)piperazinyl]methyl}-5-methyl-2-phenylpyrrolyl)pyrazin-2-ylcarboxamide] | >16.0 | + | >16.0 µg/mL | – | –
19 | Cc1cc(CN2CCN(C(c3ccccc3)c3ccccc3)CC2)c(-c2ccccc2)n1NC(=O)c1cnccn1 [compound 36, N-(3-{[4-(diphenylmethyl)piperazinyl]methyl}-5-methyl-2-phenylpyrrolyl) pyrazin-2-ylcarboxamide] | 0.5 (≈ 0.921 µM) | + | 0.5 to 1.0 µg/mL | – | –
20 | Cc1c(CN2CCN(c3cccc(C(F)(F)F)c3)CC2)cc(-c2ccc(Cl)cc2)n1NC(=O)c1cnccn1 [compound 39, N-(5-(4-chlorophenyl)-3-{[4-(3-trifluoromethylphenyl)piperazinyl]methyl}-2-methylpyrrolyl)pyrazin-2-ylcarboxamide] | 4.0 (≈ 7.21 µM) | + | 4.0 to 8.0 µg/mL | – | –
21 | COc1ccccc1N1CCN(Cc2cc(C)n(NC(=O)c3cnccn3)c2-c2ccc(Cl)cc2)CC1 [compound 42, N-(2-(4-chlorophenyl)-3-{[4-(2-methoxyphenyl)piperazinyl]methyl}-5-methylpyrrolyl)pyrazin-2-ylcarboxamide] | 8.0 (≈ 15.5 µM) | + | 8.0 µg/mL (≈ 15.5 µM) | – | –
22 | Cc1c(CN2CCN(c3ccc(F)cc3)CC2)cc(-c2ccc(Cl)cc2)n1-c1ccc(F)cc1F [compound 44, 1-{[1-(2,4-difluorophenyl)-5-(4-chlorophenyl)-2-methylpyrrol-3-yl]methyl}-4-(4-fluorophenyl)piperazine] | – | + | – | 1 (≈ 2.02 µM) | 1 to 2 (≈ 2.02 to 4.03 µM)

From patent publication US7763602B2, “Pyrrole derivatives as antimycobacterial compounds” (priority 2002, dated 2010)
